Activity calls are given as the source filed them.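 Rule for the calls: active = compounds giving half or more protection of infected cells from virus-caused growth loss, again on retest; inactive = the rest.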
System: CEM cells HIV-1 protection, formazan growth assay
Test: NCI AIDS Antiviral Assay
Settings: for IC50: measured here: growth of uninfected CEM cells
Outline: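 Human CEM cells, uninfected and HIV-1-infected, exposed to five drug concentrations; growth measured by soluble formazan assay and scored as percent protection from infection, with protecting compounds retested.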

Row | Compound | EC50 | IC50 | outcome
1 | COc1cc(C2c3cc4c(c(O)c3C(=O)C3CCC(=O)N32)OCO4)cc(OC)c1OC (stereo unspecified) | > 200 µM | 20.9 µM | 
2 | Nc1ncnc2c1ncn2C1CC(CO)C(CO)O1 (stereo unspecified) |  |  | inactive
3 | Cc1nn(-c2ccccc2)c2c1CC(=O)Nc1ccccc1-2 | > 2 µM | 0.112 µM | 
4 | S=C1NC(c2ccccc2)=NC(Cc2ccccc2)(c2ccccc2)N1c1ccccc1 (stereo unspecified) |  |  | inactive
5 | O=S(c1ccc(Cl)cc1)S(=O)c1ccc(Cl)cc1 (stereo unspecified) | > 22.4 µM | 18.2 µM | 
6 | CCN(CC)CCSc1c2ccccc2nc2cc(NCC(=O)Nc3ccccc3-c3ccccc3NC(=O)CNc3ccc4c(SCCN(CC)CC)c5ccccc5nc4c3)ccc12 | > 33.1 µM | > 33.1 µM | 
7 | CCN(CC)C(=O)O/N=C/c1ccccc1 | > 200 µM | > 200 µM | 
8 | O=C(CC1Sc2ccccc2NC1=O)Nc1ccccc1[N+](=O)[O-] (stereo unspecified) | > 724 µM | 70.8 µM | 
9 | O=C1C(c2ccccc2)=C(c2ccccc2)C(c2ccccc2)/C1=C1\C(=O)C(c2ccccc2)=C(c2ccccc2)C1c1ccccc1 (stereo unspecified) |  |  | inactive
10 | CC(C)(C)C(=O)C(C#N)C(=O)C(C)(C)C | > 200 µM | > 200 µM | 
11 | O=C(O)C(=O)Cc1ccc(O)cc1 | > 200 µM | > 200 µM | 
12 | COC(=O)c1nn2c(=O)[nH]c3ccccc3c2c1C(=O)OC | > 562 µM | 331 µM | 
13 | CCOC1(NC(=O)N(C)C)C2CCCCC21 (stereo unspecified) | > 200 µM | > 200 µM | 
14 | COc1ccc(/C=N/NS(=O)(=O)c2ccccc2)cc1 |  |  | inactive
15 | O=C(NO)C(=O)Nc1cc(Cl)ccc1Cl | > 145 µM | 66.1 µM | 
16 | COC(=O)c1ccc(C)cc1C1CN=NC12Cc1c(C)cccc1C2=O (stereo unspecified) | > 200 µM | > 200 µM | 

Row | Compound | EC50 | IC50 | outcome
17 | Oc1ccccc1C1SC(c2ccccc2O)SC(c2ccccc2O)S1 (stereo unspecified) | > 200 µM | 11.5 µM | 
18 | O=C(O)c1cc(N=Nc2c(O)cc(O)cc2C(=O)O)ccc1/C=C/c1ccc(N=Nc2c(O)cc(O)cc2C(=O)O)cc1C(=O)O | 87.1 µM | 95.5 µM | 
19 | Cc1cc(N(C)C)ccc1N=Nc1ccc2ncccc2c1 |  |  | inactive
20 | Cc1cc(S(=O)(=O)Nc2nc3ncccc3[nH]2)c(S)cc1Cl | 33.1 µM | > 200 µM | 
21 | Cc1ccc(S(=O)(=O)N/N=C2\CCC3(O)CC2(C)CCC2C3CC2(C)C)cc1 (stereo unspecified) | 28.2 µM | 51.3 µM | 
22 | CNc1ncn(-c2c(C)cccc2C)c(=O)n1 | > 200 µM | > 200 µM | 
23 | CCCCN(CCCC)C(=O)C(=O)C(C#N)c1ccc(C)cc1 (stereo unspecified) |  |  | inactive
24 | CC1CCCN(CC(O)CN2CCN(CC(O)CN3CCCC(C)C3)C(C)C2)C1 (stereo unspecified) | > 316 µM | > 316 µM | 
25 | CCn1c2ccccc2c2nnc(NCCCO)nc21 | > 200 µM | 141 µM | 
26 | O=C(O)CNC(=O)c1ccccc1SC(=O)CCCC[n+]1ccccc1 | > 200 µM | > 200 µM | 
27 | C/C(=C\C(=O)O)C(=O)N(C)c1ccccc1I | > 200 µM | > 200 µM | 
28 | O=[N+]([O-])C(C(Cl)=C(Cl)Cl)=C(N(Cc1ccccc1)Cc1ccccc1)N(Cc1ccccc1)Cc1ccccc1 | > 0.2 µM | > 0.2 µM | 
29 | CCO/C=C1\N=C(c2ccc(Cl)c(Cl)c2)OC1=O | > 126 µM | > 126 µM | 
30 | Cc1cc2c(cc1C)[n+](=O)c(C(=O)CC(=O)C(=O)Nc1ccccc1C)c(C)n2[O-] | > 9.33 µM | > 9.33 µM | 
31 | CCOC(=O)C(=O)/C=C(\C)Nc1c(NC2OCC(OC(C)=O)C(OC(C)=O)C2OC(C)=O)nc(SC)[nH]c1=O (stereo unspecified) | > 87.1 µM | > 87.1 µM | 

From PubChem BioAssay AID179 (DTP/NCI, 2004)
